Experimental data: ChEMBL document CHEMBL1153253, “Imidazolinones as nonpeptide angiotensin II receptor antagonists” (Bioorg Med Chem Lett, 1994)

Legend:
[1] = biological target: T1, Type-1 angiotensin II receptor A (Rattus norvegicus, UniProt P25095); experiment: Displacement of [125I]- Ang II from type 1 Angiotensin II receptor
T1 sequence (P25095 whole entry): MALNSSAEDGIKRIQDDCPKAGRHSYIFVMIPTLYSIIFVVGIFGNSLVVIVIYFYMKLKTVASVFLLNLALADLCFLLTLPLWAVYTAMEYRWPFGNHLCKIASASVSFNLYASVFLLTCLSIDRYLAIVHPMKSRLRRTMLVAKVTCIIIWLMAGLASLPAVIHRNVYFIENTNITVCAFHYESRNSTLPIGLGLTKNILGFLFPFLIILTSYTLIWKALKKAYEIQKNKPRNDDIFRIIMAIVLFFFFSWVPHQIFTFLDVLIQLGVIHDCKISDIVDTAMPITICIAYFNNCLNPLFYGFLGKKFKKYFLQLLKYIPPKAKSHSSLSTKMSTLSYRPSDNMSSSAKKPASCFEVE

Rattus norvegicus = experiment: Effective dose required to lower blood pressure by 30 mm Hg in renal hypertensive rats following intravenous administration; assay type: functional
[2] = biological target: T2, Type-2 angiotensin II receptor (Homo sapiens, UniProt P50052); experiment: The compound was tested for the ability to displace 50% of totally specifically bound [125I]- Ang II from Angiotensin II receptor, type 2
T2 sequence (P50052 whole entry): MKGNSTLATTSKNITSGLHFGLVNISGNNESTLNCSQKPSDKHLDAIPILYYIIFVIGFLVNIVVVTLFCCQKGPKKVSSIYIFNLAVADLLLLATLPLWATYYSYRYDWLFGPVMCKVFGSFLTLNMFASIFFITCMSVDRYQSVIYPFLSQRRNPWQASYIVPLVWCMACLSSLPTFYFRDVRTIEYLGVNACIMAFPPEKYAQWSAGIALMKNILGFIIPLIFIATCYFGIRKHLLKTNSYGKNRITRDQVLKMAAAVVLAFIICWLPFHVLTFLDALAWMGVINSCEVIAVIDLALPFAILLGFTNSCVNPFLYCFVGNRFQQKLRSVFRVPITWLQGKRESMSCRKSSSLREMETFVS

[3] = biological target: T3, Type-1 angiotensin II receptor (Homo sapiens, UniProt P30556); experiment: The compound was tested for the ability to displace 50% of totally specifically bound [125I]- Ang II from Angiotensin II receptor, type 1 site
T3 sequence (P30556 whole entry): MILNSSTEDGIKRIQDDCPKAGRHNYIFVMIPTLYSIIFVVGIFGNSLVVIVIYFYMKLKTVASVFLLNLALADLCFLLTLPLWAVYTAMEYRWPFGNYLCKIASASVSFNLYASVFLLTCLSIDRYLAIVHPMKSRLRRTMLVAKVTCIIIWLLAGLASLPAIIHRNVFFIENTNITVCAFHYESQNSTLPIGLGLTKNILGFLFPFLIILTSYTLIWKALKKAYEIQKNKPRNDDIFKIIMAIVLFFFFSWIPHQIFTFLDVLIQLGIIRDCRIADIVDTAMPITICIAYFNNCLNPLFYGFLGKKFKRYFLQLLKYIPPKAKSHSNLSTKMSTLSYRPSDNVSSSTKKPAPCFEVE

Row | SMILES | IC50 [1] | IC50 [2] | IC50 [3] | ED30 (Rattus norvegicus)
1 | CCCC1=NC(C(F)(F)F)(C(F)(F)F)C(=O)N1Cc1ccc(-c2ccccc2-c2nn[nH]n2)cc1 | 20 nM | – | – | –
2 | O=C1N(Cc2ccc(-c3ccccc3-c3nn[nH]n3)cc2)C(c2ccccc2)=NC1(c1ccccc1)c1ccccc1 | 1400 nM | – | – | –
3 | CC1=NC(c2ccccc2)(c2ccccc2)C(=O)N1Cc1ccc(-c2ccccc2-c2nnn[nH]2)cc1 | 100 nM | – | – | –
4 | CCCC1=NC(C)(C)C(=O)N1Cc1ccc(-c2ccccc2-c2nn[nH]n2)cc1 | 4 nM | – | – | 0.36 mg/kg
5 | CCCC1=NC2(CCOCC2)C(=O)N1Cc1ccc(-c2ccccc2-c2nn[nH]n2)cc1 | 8 nM | – | – | 0.2 mg/kg
6 | CCCC1=NC(c2ccccc2)(c2ccccc2)C(=O)N1Cc1ccc(-c2ccccc2-c2nn[nH]n2)cc1 | 300 nM | – | – | –
7 | CCCC1=NC2(CC2)C(=O)N1Cc1ccc(-c2ccccc2-c2nn[nH]n2)cc1 | 3 nM | – | – | 0.54 mg/kg
8 | CCCC1=NC2(CCSCC2)C(=O)N1Cc1ccc(-c2ccccc2-c2nnn[nH]2)cc1 | – | – | 2 nM | 0.26 mg/kg

Now from value to molecule, other results behind:

Row | IC50 [1] | IC50 [2] | IC50 [3] | SMILES | ED30 (Rattus norvegicus)
9 | 1 nM | 200 nM | – | CCCC1=NC2(CCSCC2)C(=O)N1Cc1ccc(-c2ccccc2S(=O)(=O)NC(=O)c2ccccc2)cc1 | 0.29 mg/kg
10 | 3 nM | – | – | CCCC1=NC2(CCCCC2)C(=O)N1Cc1ccc(-c2ccccc2-c2nnn[nH]2)cc1 | 0.25 mg/kg
11 | 1 nM | 100 nM | – | CCCCC1=NC2(CCCC2)C(=O)N1Cc1ccc(-c2ccccc2S(=O)(=O)NC(=O)c2ccccc2)cc1 | 0.29 mg/kg
12 | 3 nM | 200 nM | – | CCCC1=NC(C)(C)C(=O)N1Cc1ccc(-c2ccccc2S(=O)(=O)NC(=O)c2ccccc2)cc1 | 0.17 mg/kg
13 | 0.9 nM | – | – | CCCC1=NC2(CCCC2)C(=O)N1Cc1ccc(-c2ccccc2-c2nnn[nH]2)cc1 | 0.32 mg/kg
14 | 9 nM | 300 nM | – | CCCC1=NC2(CCCC2)C(=O)N1Cc1ccc(-c2ccccc2S(=O)(=O)NC(=O)c2ccccc2)cc1 | 0.14 mg/kg
15 | 0.9 nM | – | – | CCCCC1=NC2(CCCC2)C(=O)N1Cc1ccc(-c2ccccc2-c2nnn[nH]2)cc1 [IRBESARTAN] | 0.16 mg/kg
